Experimental data from patent publication US9278068B2, “Vesicle compositions” (Sensulin LLC, priority 2011, dated 2016).

Legend:
[1] = tested on: HeLa cells; test: MTT assay for cytotoxicity; details: 2 h
Method: The cytotoxicity of the boronic acid derivatives from Table 1 was studied by MTT assay. 150,000 HeLa cells were plated in 96 well plates on the night before the experiments. On the day of experiments, the cells were treated with the boronic acid derivatives at three different concentrations (40 nM, 80 nM, and 160 nM) for 2 h. At the end of the incubation, MTT assays (In-Vitro toxicology MTT based assay kit, Sigma Aldrich, MO) were performed according to the manufacturer's protocol.

[2] = tested on: NF-κB; test: NF-κB assay for inflammation (nuclear translocation of NF-κB, immunocytochemistry, PCC); details: HeLa cells; for Inflammation (PCC) 40 nM / Inflammation (PCC) 80 nM / Inflammation (PCC) 160 nM: 2 h, PCC between nuclear and cytoplasmic fraction of NF-κB
Method: 15,000 HeLa cells were plated in 96 well plates the night before the experiments. On the day of the experiments, the cells were treated with the boronic acids (Table 1, below) at three different concentrations (40 nM, 80 nM, and 160 nM) for 2 h. At the end of the incubation, cells were washed with phosphate buffered saline (PBS) and were fixed in 4% paraformaldehyde for 15 min and permeablized with 0.01% Triton X-100 in PBS for 10 min. The cells were washed with PBS three times. Nonspecific sites were blocked with 5% bovine serum albumin (BSA) in PBS and incubated with the Anti-NF-κB for 1 h, followed by incubation with fluorescein isothiocyanate (FITC)-labeled secondary antibody. After washing the cells at the end of the incubation, the cells were treated with 4′,6-diamidino-2-phenylindole (DAPI) for 1 min and kept at 4° C. until further analysis. Images of the cells were acquired with a Beckman-Coulter 100 automated high-throughput microscope system and analyzed using Cytseer software (Vala Sciences, CA). The co-localization of NF-κB was quantified by measuring the PCC between the nuclear and cytoplasmic fraction of the NF-κB molecule. The PCC is a measure of the overlap between the pixel intensities of the nuclear and NF-κB images of the same cell. The PCC values can range from −1 to 1. […] A negative correlation (negative PCC value) indicates an absence of nuclear translocation.

Compound | MTT (% Cell Survival) 40 nM [1] [%] | MTT (% Cell Survival) 80 nM [1] [%] | MTT (% Cell Survival) 160 nM [1] [%] | Inflammation (PCC) 40 nM [2] | Inflammation (PCC) 80 nM [2] | Inflammation (PCC) 160 nM [2] | nuclear or cytoplasmic localization of NF-κB (FIG. 4 images) ([2]; boronic acids 80 nM, 2 hrs, LPS positive control)
OB(O)c1cc2cc(Br)ccc2s1 [5-bromobenzo-B-thophene-2boronic acid] | 71.83 | 81.40 | 90.42 | −0.0244 | −0.01 | 0.1265 | 
N#Cc1ccc(B(O)O)s1 [5-cyanothiophene-2-boronic acid] | 80.56 | 40.00 | 44.78 | −0.01 | 0.1051 | 0.2434 | 
COc1ccc(F)cc1B(O)O [5-fluoro-2-methoxyphenylboronic acid] | 84.22 | 84.22 | 54.92 | −0.0169 | 0.02474 | 0.2936 | 
OB(O)c1cnn(Cc2ccccc2)c1 [1-benzyl-1H-pyrazole-4-boronic acid] | 100.88 | 62.54 | 86.11 | −0.1081 | −0.0841 | 0.03839 | 
CC(C)(C)OC(=O)n1cccc1B(O)O [N-boc-2-pyrroleboronic acid] | 60.6873 | 51.264 | 39.41 | −0.0675 | 0.05743 | 0.1837 | 
OB(O)c1cncc(Br)c1 [5-bromopyridine-3-boronic acid] | 134.748 | 37.2764 | 30.04 | −0.038 | 0.1311 | 0.2913 | 
OB(O)c1cc2ccccc2nc1Cl [2-chloro-3-quinolineboronic acid] | 30.1105 | 44.7882 | 32.43 | 0.08644 | 0.05095 | 0.193 | 
OB(O)c1cccc(O)c1 [3-hydroxyphenylboronic acid] | 104.60 | 62.75 | 89.29 | −0.1136 | 0.04005 | 0 | 
O=Cc1sccc1B(O)O [2-formyl-3-thiopheneboronic acid] | 55.3376 | 40.3684 | 46.21 | −0.0993 | −0.0793 | 0.1262 | 
OB(O)c1ccccc1O [2-hydroxyphenylboronic acid] | 70.3314 | 55.8039 | 53.64 | −0.0198 | −0.0878 | 0.08884 | 
N#Cc1ccc(B(O)O)cc1 [4-cyanophenylboronic acid] | 60.40 | 63.69 | 54.22 | −0.0705 | −0.204 | 0.4879 | 
OB(O)c1c(F)c(F)c(F)c(F)c1F [pentafluorophenylboronic acid] | 65.63 | 60.00 | 50.98 | 0.0154 | 0.0762 | 0.2584 | 
N#Cc1cc(B(O)O)ccc1F [3-cyano-4-fluorophenylboronic acid] | 89.30 | 60.46 | 47.56 | −0.0231 | 0.1014 | 0 | 
OB(O)/C=C/c1ccccc1 [trans-2-Phenylvinylboronic acid] | 72.90 | 99.51 | 65.87 | −0.1303 | 0.1523 | 0 | 
NC(=O)c1cccc(B(O)O)c1 [3-aminocarbonylphenylboronic acid] | 101.02 | 77.93 | 29.19 | −0.0696 | 0.07022 | 0.1748 | 
OB(O)c1cnc(OCc2ccccc2)nc1OCc1ccccc1 [2,4-bis(benzyloxy)pyrimidine-5-boronic acid] | 100.05 | 89.04 | 74.74 | −0.0647 | −0.0533 | 0.04709 | 
COc1ccc(C#N)cc1B(O)O [5-cyano-2-methoxyphenylboronic acid] | 81.55 | 49.84 | 62.08 | −0.0808 | −0.0523 | −0.08086 | 
OB(O)c1ccc2ccccc2c1 [2-napthylboronic acid] | 24.3831 | 37.2192 | 21.1 | 0.06402 | 0.2437 | 0.09593 | 
O=[N+]([O-])/C=C/c1cccc(B(O)O)c1 [3-[(E)-2-nitrovinyl]phenylboronic acid] | 116.00 | 96.38 | 73.93 | −0.0456 | −0.0517 | 0.2058 | 
CCCOc1ccccc1B(O)O [2-propoxyphenylboronic acid] | 45.7459 | 42.2099 | 41.95 | −0.0398 | 0.03035 | −0.04954 | 
OB(O)c1ccccc1Cl [2-chlorophenylboronic acid] | 86.3068 | 60.0002 | 45.45 | −0.0957 | .00949 | 0.09948 | 
CC(C)[Si](C(C)C)(C(C)C)n1ccc(B(O)O)c1 [1-(triisopropylsilyl)pyrrol-E-3-boronic acid] | 72.92 | 65.92 | 56.94 | −0.0781 | 0.00445 | 0.169. | 
OB(O)C1CC1 [cyclopropylboronic acid] | 81.55 | 107.79 | 80.01 | −0.0484 | 0.03475 | 0.1705 | 
N#Cc1ccccc1B(O)O [2-cyanophenylboronic acid] | 117.42 | 62.63 | 60.33 | −0.0641 | 0.0475 | 0.104 | 
lipopolysaccharide [LPS, reference compound] |  |  |  |  |  |  | nuclear translocation of NF-κB
